Test results published in PubChem BioAssay (NCI).
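48-hour exposure; five concentrations; linearly interpolated endpoints. GI50 marks 50% less growth. TGI: concentration producing complete growth inhibition.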

Experiments:
Assay in all cases: growth of human tumour cells (NCI), 48 h
NCI-H226 lung = test system: NCI-H226 lung
HCT-15 colon = test system: HCT-15 colon
RPMI-8226 leukemia = test system: RPMI-8226 leukemia
OVCAR-5 ovarian = test system: OVCAR-5 ovarian
SK-MEL-5 melanoma = test system: SK-MEL-5 melanoma
M14 melanoma = test system: M14 melanoma
OVCAR-4 ovarian = test system: OVCAR-4 ovarian
SW-620 colon = test system: SW-620 colon
HS 578T breast = test system: HS 578T breast
MDA-MB-435 = test system: MDA-MB-435

Row | SMILES | GI50 (NCI-H226 lung) [µM] | TGI (NCI-H226 lung) [µM] | GI50 (HCT-15 colon) [µM] | TGI (HCT-15 colon) [µM] | GI50 (RPMI-8226 leukemia) [µM] | TGI (RPMI-8226 leukemia) [µM] | GI50 (OVCAR-5 ovarian) [µM] | TGI (OVCAR-5 ovarian) [µM] | GI50 (SK-MEL-5 melanoma) [µM] | TGI (SK-MEL-5 melanoma) [µM] | GI50 (M14 melanoma) [µM] | TGI (M14 melanoma) [µM] | GI50 (OVCAR-4 ovarian) [µM] | TGI (OVCAR-4 ovarian) [µM] | GI50 (SW-620 colon) [µM] | TGI (SW-620 colon) [µM] | GI50 (HS 578T breast) [µM] | TGI (HS 578T breast) [µM] | GI50 (MDA-MB-435) [µM] | TGI (MDA-MB-435) [µM]
1 | COc1ccc(Nc2ccnc(NCCCNc3ccnc4cc(Cl)ccc34)n2)cc1 | 1.92 | 4.55 | 0.397 | 1.76 | 0.891 | 3.23 | 1.16 | 3.73 | 0.387 | 1.46 | 0.196 | 0.461 | 1.35 | 6.22 | 1.07 | 2.56 | 1.46 | 3.83 | 0.243 | 0.705
2 | Nc1nccc(Nc2ccc(S(N)(=O)=O)cc2)n1 | – | > 100 | – | > 100 | – | > 100 | – | > 100 | – | > 100 | – | > 100 | – | > 100 | – | > 100 | – | > 100 | – | > 100
3 | COc1ccc(F)cc1C(=O)c1cnc(NC2CCN(S(C)(=O)=O)CC2)nc1N | 2.56 | > 20.6 | 2.86 | > 20.5 | 3.27 | 13.1 | 1.4 | > 14.7 | 3.12 | > 21.4 | 4.51 | > 25 | 5.7 | > 21.4 | 0.636 | > 16.6 | 3.93 | 17.8 | 2.39 | > 25
4 | C=C[C@]1(C)C=C2C(=O)[C@@]3(O)OC(=O)[C@@]4(CCCC(C)(C)[C@H]34)[C@@]2(O)CC1 | 5.14 | 26.1 | 0.79 | 3.05 | 1.13 | 8.17 | 1.97 | 3.85 | 1.58 | 2.97 | 1.79 | 3.82 | 1.05 | 2.87 | 0.955 | 3.36 | 2.77 | > 100 | 1.76 | 4.42
5 | Cc1cc(C)nc(SC2=C(Nc3cccc(Cl)c3)C(=O)N(Cc3ccccc3)C2=O)n1 | 0.729 | 9.43 | > 170 | > 170 | > 170 | > 170 | > 170 | > 170 | > 170 | > 170 | 39.6 | > 170 | > 170 | > 170 | > 170 | > 170 | > 170 | > 170 | > 170 | > 170
6 | CN1CCN(Cc2ccc(NC(=O)c3cncc(C#Cc4c(N)ncc5cc(F)ccc45)c3)cc2C(F)(F)F)CC1 | 0.442 | 8.56 | 0.631 | 1.31 | 1.09 | 2.83 | 1.06 | 3.55 | 0.794 | 1.52 | 0.378 | 1.11 | 0.489 | 1.38 | 0.529 | 1.4 | 1.11 | 6.47 | 0.532 | 1.15
7 | O=C(/C=C\Sc1nccc(C(F)(F)F)n1)c1ccc(Br)cc1 | 26.9 | 87.8 | 20.7 | 70.6 | 2.24 | 4.63 | 21.8 | 70.7 | 37.9 | > 100 | 17.9 | 35.5 | 20.4 | 45.8 | 30.5 | > 100 | 40.5 | > 100 | 26.2 | 78
8 | O=C(O)CC1(C(=O)O)CCCCC1 | – | > 100 | – | > 100 | – | > 100 | – | > 100 | – | > 100 | – | > 100 | – | > 100 | – | > 100 | – | > 100 | – | > 100
9 | O=C(Nc1ccc(Br)c(Cl)c1)c1cc(F)ccc1O | 0.651 | 2.69 | 0.888 | 6.66 | 0.231 | 1.02 | 1.71 | > 50 | 0.358 | 1.05 | 0.585 | 3.1 | 0.974 | > 50 | 1.2 | 9.67 | 0.719 | > 15.5 | 1.01 | > 15.8
10 | CCCC(=O)NNc1[nH]c(-c2ccc(OC)cc2)cc1C(=O)OCC | 16.1 | 30.1 | 9.47 | 21.3 | 16.8 | 86.2 | 23.7 | 44.4 | 18.5 | 33.2 | 20.4 | 39.7 | 17.1 | 32.3 | 3.54 | 12.6 | 21.7 | 57.9 | 15.6 | 31.6
11 | Cc1ccc2sc3c(NCCCNCCO)nc4ccccc4c3c(=O)c2c1 | 1.78 | 3.68 | 1.48 | 2.92 | 1.57 | 3.38 | 1.62 | 3.16 | 1.78 | 3.25 | 1.61 | 3.06 | 1.64 | 3.12 | 1.62 | 3.13 | 1.63 | 3.7 | 1.74 | 3.27
12 | CC/C(=C(\CC)c1ccc(OCCN(CC)CC)cc1)c1ccc(OCCN(CC)CC)cc1 | 3.87 | 13.7 | 1.74 | 11.2 | 1.42 | 4.63 | 3.96 | 17.7 | 1.48 | 2.86 | 0.771 | 2.27 | 3.13 | 12.3 | 2.33 | 7.79 | 1.74 | 7.09 | 1.86 | 7.28
